Data reported in patent US20260035389A1, “TETRAHYDROPYRIDOPYRIMIDINE PAN-KRAS INHIBITORS” (Mirati Therapeutics, Inc., priority 2020, published 2026).

How the values were obtained:
[1] = system: ASPC1 cells; test: Cisbio HTRF Advanced pERK assay; format: cell-based; conditions: AsPC-1 cells, 3 hrs, read-out: Inhibition (HTRF IC50 nM) of KRas-mediated Phosphorylation of ERK, AsPC-1
[2] = system: MKN1 cells; test: Cisbio HTRF Advanced pERK assay; format: cell-based; conditions: 3 hour, read-out: Inhibition (HTRF IC50 nM) of KRas-mediated Phosphorylation of ERK, MKN1
Experimental: (§1) Cisbio HTRF Advanced pERK Assay Catalog #64AERPEH • Cells: MKN1, PSN1 • Procedure: • Day 1: Seed 6,000 cells/well −25 μl/well in 384-well white solid bottom plate; RPM1_10% FBS.

[3] = system: PSN1 cells; test: Cisbio HTRF Advanced pERK assay; format: cell-based; conditions: 3 hour, read-out: Inhibition (HTRF IC50 nM) of KRas-mediated Phosphorylation of ERK, PSN1
Experimental: as §1

[4] = system: H727 cells; test: Cisbio HTRF Advanced pERK assay; format: cell-based; conditions: 3 hrs, read-out: Inhibition (HTRF IC50 nM) of KRas-mediated Phosphorylation of ERK, H727
[5] = target: KRas^G12R (Homo sapiens, UniProt P01116, G12R); test: KRas binding assay (TR-FRET displacement)
[6] = target: KRas^G12V (Homo sapiens, UniProt P01116, G12V); test: KRas binding assay (TR-FRET displacement)
[7] = target: KRas^Q61H (Homo sapiens, UniProt P01116, Q61H); test: biochemical
[8] = target: KRas^G13D (Homo sapiens, UniProt P01116, G13D); test: biochemical
Sequence of KRas^G13D (P01116 1-169 isoform P01116-2 G13D): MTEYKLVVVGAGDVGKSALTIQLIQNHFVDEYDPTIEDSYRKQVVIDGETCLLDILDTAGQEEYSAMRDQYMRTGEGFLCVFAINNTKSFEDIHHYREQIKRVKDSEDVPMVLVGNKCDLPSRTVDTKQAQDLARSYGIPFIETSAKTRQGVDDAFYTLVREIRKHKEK

Sequence of KRas^G12V (P01116 1-169 isoform P01116-2 G12V): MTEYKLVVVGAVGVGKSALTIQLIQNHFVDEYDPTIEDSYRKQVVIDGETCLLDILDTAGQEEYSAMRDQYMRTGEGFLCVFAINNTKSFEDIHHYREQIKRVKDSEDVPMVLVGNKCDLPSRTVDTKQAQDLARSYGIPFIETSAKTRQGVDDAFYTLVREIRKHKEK
Sequence of KRas^Q61H (P01116 1-169 isoform P01116-2 Q61H): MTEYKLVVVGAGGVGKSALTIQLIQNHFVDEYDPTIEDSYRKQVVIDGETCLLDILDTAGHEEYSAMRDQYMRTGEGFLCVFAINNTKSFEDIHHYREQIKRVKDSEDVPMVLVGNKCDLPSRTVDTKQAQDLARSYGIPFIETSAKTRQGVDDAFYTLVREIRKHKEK
Sequence of KRas^G12R (P01116 1-169 isoform P01116-2 G12R): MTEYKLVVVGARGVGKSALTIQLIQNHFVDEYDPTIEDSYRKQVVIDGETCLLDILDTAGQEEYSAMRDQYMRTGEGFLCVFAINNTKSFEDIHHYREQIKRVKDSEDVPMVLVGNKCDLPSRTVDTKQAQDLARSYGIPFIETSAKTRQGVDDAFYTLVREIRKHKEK

| IC50 [1] [nM] | IC50 [2] [nM] | IC50 [4] [nM] | IC50 [6] [nM] | Compound | other results |
| --- | --- | --- | --- | --- | --- |
|  |  |  | ≤ 2 | CCc1c(F)ccc2cc(O)cc(N3CCc4c(nc(OCC5(CN(C)C)CC5)nc4N4CCCn5nc(C(=O)N(C)C)cc5C4)C3)c12 [Example 203, 5-(2-((1-((dimethylamino)methyl)cyclopropyl)methoxy)-7-(8-ethyl-7-fluoro-3-hydroxynaphthalen-1-yl)-5,6,7,8-tetrahydropyrido[3,4-d]pyrimidin-4-yl)-N,N-dimethyl-5,6,7,8-tetrahydro-4H-pyrazolo[1,5-a][1,4]diazepine-2-carboxamide] |  |
|  |  |  | ≤ 2 | CCc1c(F)ccc2cc(O)cc(N3CCc4c(nc(OC[C@@]56CCCN5C[C@H](F)C6)nc4N4CCCn5nc(C(=O)N6CCCC6)cc5C4)C3)c12 [Example 191, (5-(7-(8-ethyl-7-fluoro-3-hydroxynaphthalen-1-yl)-2-(((2R,7aS)-2-fluorotetrahydro-1H-pyrrolizin-7a(5H)-yl)methoxy)-5,6,7,8-tetrahydropyrido[3,4-d]pyrimidin-4-yl)-5,6,7,8-tetrahydro-4H-pyrazolo[1,5-a][1,4]diazepin-2-yl)(pyrrolidin-1-yl)methanone] |  |
| 1740 | 148 | 1170 |  | Oc1cc(N2CCc3c(nc(OC[C@@]45CCCN4C[C@H](F)C5)nc3N3CC4CC(O)CC3C4)C2)c2c(Br)c(F)ccc2c1 (single isomer, unassigned) [Example 213] |  |
| ≥ 10000 | 1700 | 7430 |  | Oc1cc(N2CCc3c(nc(OC[C@@]45CCCN4C[C@H](F)C5)nc3N3CC4CC(O)CC3C4)C2)c2c(Br)c(F)ccc2c1 (single isomer, unassigned) [Example 214] | IC50 [3]: ≥ 10000 nM |

Further lines, the molecule ahead of its results:

| Compound | IC50 [1] [nM] | IC50 [2] [nM] | IC50 [4] [nM] | IC50 [6] [nM] | other results |
| --- | --- | --- | --- | --- | --- |
| Oc1cc(N2CCc3c(nc(OC[C@@]45CCCN4C[C@H](F)C5)nc3N3CC4CC(O)CC3C4)C2)c2c(Cl)c(F)ccc2c1 (single isomer, unassigned) [Example 77] | 9110 | 2660 | 8300 |  | IC50 [3]: ≥ 10000 nM |
| CCc1c(F)ccc2cc(O)cc(N3CCc4c(nc(OC[C@@]56CCCN5C[C@H](F)C6)nc4N4CCOCC(C)(O)C4)C3)c12 (stereo partly drawn) [Example 20, 4-(7-(8-ethyl-7-fluoro-3-hydroxynaphthalen-1-yl)-2-(((2R,7aS)-2-fluorohexahydro-1H-pyrrolizin-7a-yl)methoxy)-5,6,7,8-tetrahydropyrido[3,4-d]pyrimidin-4-yl)-6-methyl-1,4-oxazepan-6-ol] |  |  |  |  | IC50 [5]: ≤ 2 nM |
| CCc1c(F)ccc2cc(O)cc(N3CCc4c(nc(OC[C@@]56CCCN5C[C@H](F)C6)nc4N4CCCn5nc(C(=O)N(C)C)c(C)c5C4)C3)c12 [Example 189, 5-(7-(8-ethyl-7-fluoro-3-hydroxynaphthalen-1-yl)-2-(((2R,7aS)-2-fluorotetrahydro-1H-pyrrolizin-7a(5H)-yl)methoxy)-5,6,7,8-tetrahydropyrido[3,4-d]pyrimidin-4-yl)-N,N,3-trimethyl-5,6,7,8-tetrahydro-4H-pyrazolo[1,5-a][1,4]diazepine-2-carboxamide] |  |  |  | ≤ 2 |  |
| CCc1c(F)ccc2cc(O)cc(N3CCc4c(nc(OC[C@@]56CCCN5C[C@H](F)C6)nc4N4CC5CC(O)CC4C5)C3)c12 (stereo partly drawn) [Example 35, 6-(7-(8-ethyl-7-fluoro-3-hydroxynaphthalen-1-yl)-2-(((2R,7aS)-2-fluorohexahydro-1H-pyrrolizin-7a-yl)methoxy)-5,6,7,8-tetrahydropyrido[3,4-d]pyrimidin-4-yl)-6-azabicyclo[3.2.1]octan-3-ol] |  |  |  | ≤ 2 |  |
| CCc1cccc2cccc(N3CCc4c(nc(OCC56CCCN5CCC6)nc4N4CCCC(P(C)(C)=O)C4)C3)c12 (stereo not shown) [Example 112, (1-(7-(8-ethylnaphthalen-1-yl)-2-((tetrahydro-1H-pyrrolizin-7a(5H)-yl)methoxy)-5,6,7,8-tetrahydropyrido[3,4-d]pyrimidin-4-yl)piperidin-3-yl)dimethylphosphine oxide] |  |  |  |  | IC50 [7]: 647 nM |
| O=C1NC(=O)C2(CCCN(c3nc(OC[C@@]45CCCN4C[C@H](F)C5)nc4c3CCN(c3cc(O)cc5ccc(F)c(Cl)c35)C4)C2)N1 (stereo partly drawn) [Example 69, 7-(7-(8-chloro-7-fluoro-3-hydroxynaphthalen-1-yl)-2-(((2R,7aS)-2-fluorohexahydro-1H-pyrrolizin-7a-yl)methoxy)-5,6,7,8-tetrahydropyrido[3,4-d]pyrimidin-4-yl)-1,3,7-triazaspiro[4.5]decane-2,4-dione] |  |  |  | ≤ 2 |  |
| Oc1cc(N2CCc3c(nc(OC[C@@]45CCCN4C[C@H](F)C5)nc3N3CC4CC(O)CC3C4)C2)c2c(Cl)c(F)ccc2c1 (single isomer, unassigned) [Example 76] | 2070 | 468 | 1780 |  |  |
| CCc1c(F)ccc2cc(O)cc(N3CCc4c(nc(OC[C@@]56CCCN5C[C@H](F)C6)nc4N4CCC[C@@](C)(O)C4)C3)c12 [Example 2, (R)-1-(7-(8-ethyl-7-fluoro-3-hydroxynaphthalen-1-yl)-2-(((2R,7aS)-2-fluorohexahydro-1H-pyrrolizin-7a-yl)methoxy)-5,6,7,8-tetrahydropyrido[3,4-d]pyrimidin-4-yl)-3-methylpiperidin-3-ol] |  |  |  |  | IC50 [8]: ≤ 2 nM |
